Reference: patent US20230120211A1, “HDAC Degrader” (University of Leicester, priority 2020, published 2023)

Columns and labels:
H3K56ac = H3K56ac levels in E14 mouse embryonic stem cells, quantitative western blot; format: cell-based; settings: E14 mES cells, 24 h; CI-994 40 μM, Panobinostat 30 nM
Procedure: The inventors proceeded to assess their compounds effects on HDAC activity in cells.
To examine the ability of PROTACs 1-4 to reduce HDAC1, 2 and 3 activity in cells they began by measuring H3K56ac using quantitative western blotting (see FIG. 3B).
(§1) HCT116 or mES cells were treated 24 hours after seeding. 24 hours post treatment, cells were harvested, lysed in lysis buffer (50 mM Tris-HCl, 150 mM NaCl, 0.5% NP-40, 0.5% Triton X-100) with protease inhibitor (Sigma, P8340), then incubated on ice for 30 minutes, before being centrifuged (18,000 ref, 15 minutes, 4° C.). The supernatant was collected, and protein concentrations quantified via Bradford Assay using Protein Assay Dye Reagent Concentrate (BIO-RAD). For histone extraction, an equal volume of 0.4 N H2SO4 was added to the pellets and the extracts placed at 4° C. overnight. Following overnight incubation, the tubes were centrifuged (18,000 ref, 15 minutes, 4° C.) and then the supernatant (histone extract) collected.
(§2) Western blots were run on NuPAGE™ 4-12% Bis-Tris gels with 20-30 μg of protein or 10 μL of acid-extracted histone loaded per lane, using NuPAGE™ LDS Sample Buffer (4×). PageRuler™ Plus Prestained Ladder was used for size standards. After gel electrophoresis at 140V for 75-90 minutes the separated proteins were transferred onto nitrocellulose membrane at 30V for 60 minutes. The membranes were probed with primary antibodies (listed below) for 60-90 minutes. Blots were developed with complimentary IRDye conjugated secondary antibodies and the bands visualised using the Odyssey Infrared Imaging System. Image processing and band intensity quantification was performed using Image Studio Lite.

HDAC1 = target: T1, HDAC1 (Homo sapiens, UniProt Q13547); assay: HDAC1 degradation in HCT116 cells, quantitative western blot; format: cell-based; settings: for Dmax: HCT-116, 24 h, HCT116, screened at 0.1, 1 and 10 μM, maximum degradation irrespective of concentration, read-out: HDAC1 Degrader (% Degradation)
T1 construct: endogenous in cells; host or cells: HCT116
T1 sequence (Q13547 whole entry): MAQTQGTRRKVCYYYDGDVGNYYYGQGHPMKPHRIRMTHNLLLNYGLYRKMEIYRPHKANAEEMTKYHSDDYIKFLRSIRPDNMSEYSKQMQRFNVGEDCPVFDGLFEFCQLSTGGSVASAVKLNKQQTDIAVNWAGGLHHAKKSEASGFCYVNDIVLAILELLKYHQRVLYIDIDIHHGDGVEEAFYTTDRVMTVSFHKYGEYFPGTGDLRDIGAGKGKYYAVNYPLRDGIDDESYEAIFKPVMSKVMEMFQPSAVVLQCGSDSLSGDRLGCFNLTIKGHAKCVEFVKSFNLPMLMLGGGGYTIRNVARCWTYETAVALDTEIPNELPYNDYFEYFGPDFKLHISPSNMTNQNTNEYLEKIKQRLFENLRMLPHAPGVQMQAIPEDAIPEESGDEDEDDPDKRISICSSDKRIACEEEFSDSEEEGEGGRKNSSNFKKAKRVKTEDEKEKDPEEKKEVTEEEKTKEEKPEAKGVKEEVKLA
Procedure: (§3) The compounds were screened at 0.1 μM, 1 μM and 10 μM in a HCT116 cell line. The maximum degradation observed irrespective of the concertation was recorded. The screening of the new compounds was done in 6-well plates, 5 mL media, with 400,000 cells per well to increase throughput.
as §1
as §2, with “PageRuler™” for “Western blots were run on NuPAGE™ 4-12% Bis-Tris gels with 20-30 μg of protein or 10 μL of acid-extracted histone loaded per lane, using NuPAGE™ LDS Sample Buffer (4×). PageRuler™”

HDAC2 = target: T2, HDAC2 (Homo sapiens, UniProt Q92769); assay: HDAC2 degradation in HCT116 cells, quantitative western blot; format: cell-based; settings: for HDAC 2 Degrader (% Degradation) / Dmax: HCT116, screened at 0.1, 1 and 10 μM, maximum degradation irrespective of concentration; for Dmax: HCT-116, 24 h, read-out: HDAC 2 Degrader (% Degradation)
T2 construct: endogenous in cells; host or cells: HCT116
T2 sequence (Q92769 whole entry): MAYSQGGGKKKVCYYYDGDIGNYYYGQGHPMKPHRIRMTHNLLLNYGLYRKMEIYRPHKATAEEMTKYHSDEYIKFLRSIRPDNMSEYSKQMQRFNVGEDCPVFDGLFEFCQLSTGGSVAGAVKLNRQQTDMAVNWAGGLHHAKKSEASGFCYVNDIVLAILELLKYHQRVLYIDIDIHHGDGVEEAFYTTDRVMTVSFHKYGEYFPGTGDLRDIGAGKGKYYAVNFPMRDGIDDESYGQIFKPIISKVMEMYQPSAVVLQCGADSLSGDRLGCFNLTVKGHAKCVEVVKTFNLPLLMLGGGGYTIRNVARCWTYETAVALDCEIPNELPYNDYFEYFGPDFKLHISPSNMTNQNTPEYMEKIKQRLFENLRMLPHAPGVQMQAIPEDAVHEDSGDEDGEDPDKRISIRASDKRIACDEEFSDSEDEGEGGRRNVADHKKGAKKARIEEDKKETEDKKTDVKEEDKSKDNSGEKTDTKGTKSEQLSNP
Procedure: as §3, §1
as §2, with “PageRuler™” for “Western blots were run on NuPAGE™ 4-12% Bis-Tris gels with 20-30 μg of protein or 10 μL of acid-extracted histone loaded per lane, using NuPAGE™ LDS Sample Buffer (4×). PageRuler™”

CoREST = CoREST (Homo sapiens, UniProt Q13547); assay: HDAC inhibition assay, CoREST complex (Table 1, run under different conditions); format: biochemical; settings: Table 1 conditions (differ from FIG. 3)
Sequence of CoREST (Q13547 whole entry, other chains not shown): as the sequence (Q13547 whole entry) above
Sequence of CoREST (Q9UKL0 86-485 partner limits assumed, other chains not shown): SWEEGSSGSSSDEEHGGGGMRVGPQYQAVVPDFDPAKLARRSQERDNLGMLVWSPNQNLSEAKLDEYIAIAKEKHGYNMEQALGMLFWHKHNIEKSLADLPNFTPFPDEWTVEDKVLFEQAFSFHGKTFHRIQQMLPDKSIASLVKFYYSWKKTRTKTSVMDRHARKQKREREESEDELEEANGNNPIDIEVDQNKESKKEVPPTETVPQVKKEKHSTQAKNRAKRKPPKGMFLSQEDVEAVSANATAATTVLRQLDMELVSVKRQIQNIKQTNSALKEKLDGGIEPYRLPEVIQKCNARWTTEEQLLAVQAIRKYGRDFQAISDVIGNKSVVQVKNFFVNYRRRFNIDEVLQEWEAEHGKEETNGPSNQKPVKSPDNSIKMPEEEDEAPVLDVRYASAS
Procedure: Inhibition tests against LSD1-HDAC-CoREST complex were performed using a two-enzyme fluorescence-based HDAC assay. The inhibitor/PROTACs were dissolved at 50 mM in DMSO, then 1:2 serial dilutions performed using HDAC assay buffer (50 mM Tris pH 7.5, 150 mM NaCl) to afford range of concentrations.
The assays were performed in black 96-well plates with a reaction volume of 50 μL per well. All determinations were performed in triplicate. […] After an incubation of 20 minutes at 37° C. and 150 rpm, deacetylation was stopped by the addition of 50 μL of a developing solution containing trypsin (50 mM Tris pH 7.5, 100 mM NaCl, 10 mg/mL trypsin). […] HDAC Activity was calculated by subtracting the average blank fluorescence from the well fluorescence. Graphpad Prism software was utilised to determine IC50 values.

NuRD = NuRD (Homo sapiens, UniProt Q13547); assay: HDAC inhibition assay, NuRD complex (Table 1); format: biochemical
Sequence of NuRD (Q13547 whole entry): as the sequence (Q13547 whole entry) above
Sequence of NuRD (Q13330 162-546 partner limits assumed): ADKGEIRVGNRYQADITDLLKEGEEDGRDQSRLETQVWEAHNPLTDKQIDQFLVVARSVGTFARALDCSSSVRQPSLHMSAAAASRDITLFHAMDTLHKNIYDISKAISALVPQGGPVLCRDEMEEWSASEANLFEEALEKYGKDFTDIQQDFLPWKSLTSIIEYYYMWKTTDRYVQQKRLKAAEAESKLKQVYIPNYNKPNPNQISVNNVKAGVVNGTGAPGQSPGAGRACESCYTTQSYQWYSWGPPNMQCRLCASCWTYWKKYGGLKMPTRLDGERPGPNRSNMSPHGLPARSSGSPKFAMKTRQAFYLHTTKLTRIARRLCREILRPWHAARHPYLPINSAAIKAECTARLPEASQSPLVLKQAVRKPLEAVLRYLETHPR
Sequence of NuRD (Q09028 whole entry partner): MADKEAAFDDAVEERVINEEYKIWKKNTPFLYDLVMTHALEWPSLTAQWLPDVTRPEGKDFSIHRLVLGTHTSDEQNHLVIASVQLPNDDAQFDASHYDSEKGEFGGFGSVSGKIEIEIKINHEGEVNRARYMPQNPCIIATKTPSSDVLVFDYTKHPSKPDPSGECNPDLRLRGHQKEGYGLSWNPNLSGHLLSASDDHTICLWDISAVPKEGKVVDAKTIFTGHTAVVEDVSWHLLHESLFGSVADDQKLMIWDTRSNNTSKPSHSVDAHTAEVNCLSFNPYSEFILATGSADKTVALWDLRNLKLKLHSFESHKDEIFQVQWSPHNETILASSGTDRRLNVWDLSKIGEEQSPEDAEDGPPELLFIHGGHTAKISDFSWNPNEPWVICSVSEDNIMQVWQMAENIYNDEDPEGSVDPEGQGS

MiDAC = MiDAC (Homo sapiens, UniProt Q13547); assay: HDAC inhibition assay, MiDAC complex (Table 1); format: biochemical
Sequence of MiDAC (Q13547 whole entry): as the sequence (Q13547 whole entry) above
Sequence of MiDAC (Q6PJG2 628-887 partner limits assumed): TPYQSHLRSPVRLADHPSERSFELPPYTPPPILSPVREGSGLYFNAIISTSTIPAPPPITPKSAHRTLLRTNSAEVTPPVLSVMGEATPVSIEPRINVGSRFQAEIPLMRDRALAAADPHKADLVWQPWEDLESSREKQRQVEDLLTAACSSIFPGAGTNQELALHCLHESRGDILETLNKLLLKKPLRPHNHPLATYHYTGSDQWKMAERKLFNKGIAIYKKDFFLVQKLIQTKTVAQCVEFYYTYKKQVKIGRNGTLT
Sequence of MiDAC (Q9H147 whole entry partner): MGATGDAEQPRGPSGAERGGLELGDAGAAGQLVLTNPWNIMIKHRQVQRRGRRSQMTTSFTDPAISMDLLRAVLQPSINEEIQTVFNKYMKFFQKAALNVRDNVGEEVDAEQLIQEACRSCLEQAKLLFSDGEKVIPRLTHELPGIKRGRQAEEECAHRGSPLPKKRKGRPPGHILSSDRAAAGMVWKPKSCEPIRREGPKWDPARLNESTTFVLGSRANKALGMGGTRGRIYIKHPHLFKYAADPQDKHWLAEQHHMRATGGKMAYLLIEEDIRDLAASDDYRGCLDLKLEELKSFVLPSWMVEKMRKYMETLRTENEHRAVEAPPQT

HDAC3 = target: T3, HDAC3 (Homo sapiens, UniProt O15379); assay: HDAC3 degradation in HCT116 cells, quantitative western blot; format: cell-based; settings: HCT-116, 24 h; HCT116, screened at 0.1, 1 and 10 μM; maximum degradation irrespective of concentration; read-out: HDAC 3 degrader (% Degradation)
T3 construct: endogenous in cells; host or cells: HCT116
T3 sequence (O15379 whole entry): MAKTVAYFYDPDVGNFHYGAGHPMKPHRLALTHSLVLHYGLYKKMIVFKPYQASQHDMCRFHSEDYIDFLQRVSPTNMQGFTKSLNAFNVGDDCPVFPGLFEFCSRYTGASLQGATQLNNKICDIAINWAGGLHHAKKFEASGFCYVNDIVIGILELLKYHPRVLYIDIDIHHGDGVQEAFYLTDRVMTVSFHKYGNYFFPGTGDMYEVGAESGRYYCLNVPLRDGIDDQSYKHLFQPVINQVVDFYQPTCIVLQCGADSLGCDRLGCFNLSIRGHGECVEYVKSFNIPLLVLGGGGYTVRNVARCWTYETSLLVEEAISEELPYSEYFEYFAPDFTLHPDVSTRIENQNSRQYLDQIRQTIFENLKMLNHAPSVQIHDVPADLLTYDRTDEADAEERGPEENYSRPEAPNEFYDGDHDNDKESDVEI
Procedure: as §3, §1
as §2, with “PageRuler™” for “Western blots were run on NuPAGE™ 4-12% Bis-Tris gels with 20-30 μg of protein or 10 μL of acid-extracted histone loaded per lane, using NuPAGE™ LDS Sample Buffer (4×). PageRuler™”

[1] = HCT116, side by side with PROTAC 4, FIG. 4C

SMILES	Dmax (HDAC1) [%]	Dmax (HDAC2) [%]	Dmax (HDAC3) [%]	other results
CC(=O)Nc1ccc(C(=O)Nc2ccccc2N)cc1 [CI-994, 4-acetamido-N-(2-aminophenyl)benzamide, reference compound]	–	–	–	H3K56 acetylation level (H3K56ac): increased
Cc1ncsc1-c1ccc(CNC(=O)[C@@H]2C[C@H](O)CN2C(=O)[C@@H](NC(=O)CCCCCCCCCCC(=O)Nc2ccc(C(=O)Nc3ccccc3N)cc2)C(C)(C)C)cc1 [NC-PROTAC4, N1-(4-((2-aminophenyl)carbamoyl)phenyl)-N12-((S)-1-((2S,4S)-4-hydroxy-2-((4-(4-methylthiazol-5-yl)benzyl)carbamoyl)pyrrolidin-1-yl)-3,3-dimethyl-1-oxobutan-2-yl)dodecanediamide]	–	–	–	HDAC1 degradation (HDAC1; [1]): No degradation; HDAC2 degradation (HDAC2; [1]): No degradation
Nc1ccccc1NC(=O)c1ccc(NC(=O)CCCCCCCCCCCNC(=O)COc2cccc3c2C(=O)N(C2CCC(=O)NC2=O)C3=O)cc1 (centres unmarked) [PROTAC2, N-(2-aminophenyl)-4-(12-(2-((2-(2,6-dioxopiperidin-3-yl)-1,3-dioxoisoindolin-4-yl)oxy)acetamido)dodecanamido)benzamide]	–	–	–	H3K56 acetylation level (H3K56ac): increase in acetylation to similar levels
Cc1ncsc1-c1ccc(CNC(=O)[C@@H]2C[C@@H](O)CN2C(=O)[C@@H](NC(=O)CCCCCCCC(=O)Nc2ccc(C(=O)Nc3ccccc3N)cc2)C(C)(C)C)cc1 [PROTAC6, N1-(4-((2-aminophenyl)carbamoyl)phenyl)-N9-((S)-1-((2S,4R)-4-hydroxy-2-((4-(4-methylthiazol-5-yl)benzyl)carbamoyl)pyrrolidin-1-yl)-3,3-dimethyl-1-oxobutan-2-yl)nonanediamide]	60	–	–	IC50 (CoREST): 0.244 µM; IC50 (NuRD): 0.338 µM; IC50 (MiDAC): 1.69 µM; HDAC 2 Degrader (% Degradation) (HDAC2): partial
CN[C@@H](C)C(=O)N[C@H](C(=O)N1C[C@@H](NC(=O)CCCCCCCCCCC(=O)Nc2ccc(C(=O)Nc3ccccc3N)cc2)C[C@H]1C(=O)N[C@@H]1CCCc2ccccc21)C1CCCCC1 [PROTAC26, N^1-(4-((2-aminophenyl)carbamoyl)phenyl)-N^12-((3S,5S)-1-((S)-2-cyclohexyl-2-((S)-2-(methylamino)propanamido)acetyl)-5-(((R)-1,2,3,4-tetrahydronaphthalen-1-yl)carbamoyl)pyrrolidin-3-yl) dodecanediamide]	88	58	88	–
Cc1ncsc1-c1ccc(CNC(=O)[C@@H]2C[C@@H](O)CN2C(=O)[C@@H](NC(=O)CCCCCCCn2cc(COC(=O)NCc3ccc(C(=O)Nc4ccccc4N)cc3)nn2)C(C)(C)C)cc1 [PROTAC29, (1-(8-(((S)-1-((2S,4R)-4-hydroxy-2-((4-(4-methylthiazol-5-yl)benzyl)carbamoyl)pyrrolidin-1-yl)-3,3-dimethyl-1-oxobutan-2-yl)amino)-8-oxooctyl)-1H-1,2,3-triazol-4-yl)methyl(4-((2-aminophenyl)carbamoyl)benzyl)carbamate]	39	23	64	–

Further lines, with some results ahead:

Dmax (HDAC1) [%]	Dmax (HDAC2) [%]	Dmax (HDAC3) [%]	SMILES	other results
42	46	32	Cc1ncsc1-c1ccc(CNC(=O)[C@@H]2C[C@@H](O)CN2C(=O)[C@@H](NC(=O)COCCCCCCOCC(=O)Nc2ccc(C(=O)Nc3ccccc3N)cc2)C(C)(C)C)cc1 [PROTAC12, (2S,4R)-1-((S)-2-(2-((6-(2-((4-((2-aminophenyl)carbamoyl)phenyl)amino)-2-oxoethoxy)hexyl)oxy)acetamido)-3,3-dimethylbutanoyl)-4-hydroxy-N-(4-(4-methylthiazol-5-yl)benzyl)pyrrolidine-2-carboxamide]	IC50 (CoREST): 7.17 µM; IC50 (NuRD): 8.13 µM; IC50 (MiDAC): 5.15 µM
67	58	67	Cc1ncsc1-c1ccc(CNC(=O)[C@@H]2C[C@@H](O)CN2C(=O)[C@@H](NC(=O)COCCCCCCCCCOCC(=O)Nc2ccc(C(=O)Nc3ccccc3N)cc2)C(C)(C)C)cc1 [PROTAC16, (2S,4R)-1-((S)-2-(2-((9-(2-((4-((2-aminophenyl)carbamoyl)phenyl)amino)-2-oxoethoxy)nonyl)oxy)acetamido)-3,3-dimethylbutanoyl)-4-hydroxy-N-(4-(4-methylthiazol-5-yl)benzyl)pyrrolidine-2-carboxamide]	IC50 (CoREST): 4.13 µM; IC50 (NuRD): 11.8 µM
32	–	32	Cc1ncsc1-c1ccc(CNC(=O)[C@@H]2C[C@@H](O)CN2C(=O)[C@@H](NC(=O)COCCOCCOCC(=O)Nc2ccc(C(=O)Nc3cc(-c4cccs4)ccc3N)cc2)C(C)(C)C)cc1 [PROTAC22, (2S,4R)-1-((S)-14-((4-((2-amino-5-(thiophen-2-yl)phenyl)carbamoyl)phenyl)amino)-2-(tert-butyl)-4,14-dioxo-6,9,12-trioxa-3-azatetradecanoyl)-4-hydroxy-N-(4-(4-methylthiazol-5-yl)benzyl)pyrrolidine-2-carboxamide]	HDAC 2 Degrader (% Degradation) (HDAC2): No
47	44	30	Cc1ncsc1-c1ccc(CNC(=O)[C@@H]2C[C@@H](O)CN2C(=O)[C@@H](NC(=O)CCCCCCCCCCCCC(=O)Nc2ccc(C(=O)Nc3ccccc3N)cc2)C(C)(C)C)cc1 [PROTAC34, N1-(4-((2-aminophenyl)carbamoyl)phenyl)-N14-((S)-1-((2S,4R)-4-hydroxy-2-((4-(4-methylthiazol-5-yl)benzyl)carbamoyl)pyrrolidin-1-yl)-3,3-dimethyl-1-oxobutan-2-yl)tetradecanediamide]	–
61	49	38	CC(=O)N[C@H](C(=O)N1C[C@H](O)C[C@H]1C(=O)NCc1ccc(-c2scnc2C)cc1OCCCCCCCCCCCC(=O)Nc1ccc(C(=O)Nc2ccccc2N)cc1)C(C)(C)C [PROTAC35, (2S,4R)-1-((S)-2-acetamido-3,3-dimethylbutanoyl)-N-(2-((12-((4-((2-aminophenyl)carbamoyl)phenyl)amino)-12-oxododecyl)oxy)-4-(4-methylthiazol-5-yl)benzyl)-4-hydroxypyrrolidine-2-carboxamide]	–
51	28	69	Cc1ncsc1-c1ccc(CNC(=O)[C@@H]2C[C@@H](O)CN2C(=O)[C@@H](NC(=O)C2(F)CC2)C(C)(C)C)c(OCCCCCCCCCCCC(=O)Nc2ccc(C(=O)Nc3ccccc3N)cc2)c1 [PROTAC36, (2S,4R)-N-(2-((12-((4-((2-aminophenyl)carbamoyl)phenyl)amino)-12-oxododecyl)oxy)-4-(4-methylthiazol-5-yl)benzyl)-1-((S)-2-(1-fluorocyclopropane-1-carboxamido)-3,3-dimethylbutanoyl)-4-hydroxypyrrolidine-2-carboxamide]	–
38	16	37	CN[C@@H](C)C(=O)N[C@H](C(=O)N1CCC[C@H]1c1nc(C(=O)c2cccc(OCCCCCCCCCCCC(=O)Nc3ccc(C(=O)Nc4ccccc4N)cc3)c2)cs1)C1CCCCC1 [PROTAC37, N-(2-aminophenyl)-4-(12-(3-(2-((S)-1-((S)-2-cyclohexyl-2-((S)-2-(methylamino)propanamido)acetyl)pyrrolidin-2-yl)thiazole-4-carbonyl)phenoxy)dodecanamido)benzamide]	–
